Format in all cases: cell-based
In one experiment the target is NK1 (Homo sapiens, UniProt P25103). Nature of the experiment: Signal transduction (ST), intracellular Ca++ (FLIPR), NK1 antagonism. The conditions noted are these: for IC50: read-out: pIC50 NK1 (converted). Put shortly:
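Confluent cells were loaded with 2 μM Fluo3 with probenecid for 1 h at 37°C, then preincubated with antagonist concentration ranges for 20 min at RT before agonist addition. Peak FLIPR calcium transient was taken as signal; IC50 from non-linear regression of sigmoidal curves.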

A further experiment deals with T1, NK3 (Homo sapiens, UniProt P29371).
T1 sequence (P29371 1-465): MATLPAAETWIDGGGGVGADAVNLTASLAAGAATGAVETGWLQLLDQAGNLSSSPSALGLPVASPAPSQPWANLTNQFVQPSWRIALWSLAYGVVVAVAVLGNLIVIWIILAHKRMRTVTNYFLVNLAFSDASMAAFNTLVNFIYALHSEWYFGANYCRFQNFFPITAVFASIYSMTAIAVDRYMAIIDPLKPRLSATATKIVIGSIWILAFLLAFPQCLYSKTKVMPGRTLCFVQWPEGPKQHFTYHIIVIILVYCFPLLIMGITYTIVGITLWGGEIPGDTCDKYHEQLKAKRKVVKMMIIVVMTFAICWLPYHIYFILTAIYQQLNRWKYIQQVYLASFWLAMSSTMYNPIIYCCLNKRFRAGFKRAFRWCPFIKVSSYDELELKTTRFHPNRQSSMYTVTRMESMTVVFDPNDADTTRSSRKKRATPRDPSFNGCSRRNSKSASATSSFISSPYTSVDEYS
The experiment can be described thus: Signal transduction (ST), intracellular Ca++ (FLIPR), NK3. The conditions noted are these: for IC50: read-out: pIC50 NK3 (converted).

A further experiment addresses T2, NK2 (Homo sapiens, UniProt P21452).
T2 sequence (P21452 1-398): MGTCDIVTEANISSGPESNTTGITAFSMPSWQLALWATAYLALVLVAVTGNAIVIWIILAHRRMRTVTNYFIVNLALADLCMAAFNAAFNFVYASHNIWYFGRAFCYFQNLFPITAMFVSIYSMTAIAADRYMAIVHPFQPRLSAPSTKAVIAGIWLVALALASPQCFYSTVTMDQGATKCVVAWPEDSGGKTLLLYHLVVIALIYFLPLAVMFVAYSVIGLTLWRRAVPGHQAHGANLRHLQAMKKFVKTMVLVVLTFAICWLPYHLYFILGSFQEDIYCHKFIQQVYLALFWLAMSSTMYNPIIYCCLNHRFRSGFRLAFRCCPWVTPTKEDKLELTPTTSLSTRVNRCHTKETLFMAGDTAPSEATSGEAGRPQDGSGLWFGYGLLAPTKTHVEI
Nature of the experiment: Signal transduction (ST), intracellular Ca++ (FLIPR), NK2. Particulars: for IC50: read-out: pIC50 NK2 (converted). How it is done: [The source words this procedure for another target and reports this target under the same test.] This test evaluates in vitro functional NK1 antagonistic activity. For the measurements of intracellular Ca^++ concentrations the cells were grown on 96-well (black wall/transparent bottom) plates from Costar for 2 days until they reached confluence. The cells were loaded with 2 μM Fluo3 in DMEM containing 0.1% BSA and 2.5 mM probenecid for 1 h at 37° C. […] The cells were preincubated with a concentration range of antagonists for 20 min at RT and Ca^++-signals after addition of the agonists were measured in a Fluorescence Image Plate Reader (FLIPR from Molecular Devices, Crawley, England). The peak of the Ca^++-transient was considered as the relevant signal and the mean values of corresponding wells were analysed as described below.
The sigmoidal dose response curves were analysed by computerised curve-fitting, using the GraphPad Program. […] For antagonist responses the IC50-value was calculated using non-linear regression.

The values below come from US7572786B2, “Substituted 1-piperidin-3-yl-4-piperidin-4-yl-piperazine derivatives and their use as neurokinin antagonists” (Janssen Pharmaceutica, N.V., priority 2002, dated 2009).

Chain of NK1 (P25103 whole entry): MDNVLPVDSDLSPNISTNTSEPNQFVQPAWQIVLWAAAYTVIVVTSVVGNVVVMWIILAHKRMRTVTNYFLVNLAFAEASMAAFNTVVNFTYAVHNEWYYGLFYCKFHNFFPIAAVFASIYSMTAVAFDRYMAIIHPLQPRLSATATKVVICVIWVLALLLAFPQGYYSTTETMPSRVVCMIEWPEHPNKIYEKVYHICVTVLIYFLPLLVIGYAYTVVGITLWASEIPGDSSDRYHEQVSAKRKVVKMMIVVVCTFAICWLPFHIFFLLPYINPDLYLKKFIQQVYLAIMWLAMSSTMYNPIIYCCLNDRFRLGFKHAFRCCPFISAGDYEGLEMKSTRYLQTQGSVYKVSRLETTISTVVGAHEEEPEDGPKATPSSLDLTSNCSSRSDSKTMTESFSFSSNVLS

`O=C(Nc1ccccc1F)N1CCCC(N2CCN([C@H]3CCN(C(=O)c4cc(C(F)(F)F)cc(C(F)(F)F)c4)[C@H](Cc4ccccc4)C3)CC2)C1` (stereo partly drawn) [Compound 65]: the IC50 is 10 nM at NK1, 6310 nM on NK3 and 1580 nM at NK2.

`CC(C)NC(=O)N1CCCC(N2CCN(C3CCN(C(=O)c4cc(C(F)(F)F)cc(C(F)(F)F)c4)C(Cc4ccccc4)C3)CC2)C1` (stereo not drawn) [Compound 66]: the results for the IC50 at NK1, at NK3 and on NK2 were 5.01 nM, 3160 nM and 3160 nM, respectively.

`O=C(c1ccc(O)cc1)N1CCCC(N2CCN(C3CCN(C(=O)c4cc(C(F)(F)F)cc(C(F)(F)F)c4)C(Cc4ccccc4)C3)CC2)C1` (stereo not drawn) [Compound 67]: the IC50 on NK1 was 6.31 nM; on NK3, 1580 nM; on NK2 it was 5010 nM.

As to `COc1ccccc1S(=O)(=O)N1CCCC(N2CCN([C@H]3CCN(C(=O)c4cc(C(F)(F)F)cc(C(F)(F)F)c4)[C@H](Cc4ccccc4)C3)CC2)C1` (stereo partly drawn) [Compound 68], the “pIC50 NK1” value at NK1 is 8.0. Also, the “pIC50 NK3” value on NK3 is recorded as 5.8. At NK2, the “pIC50 NK2” value turned out to be 5.8.

For `COc1cccc(S(=O)(=O)N2CCCC(N3CCN([C@H]4CCN(C(=O)c5cc(C(F)(F)F)cc(C(F)(F)F)c5)[C@H](Cc5ccccc5)C4)CC3)C2)c1` (stereo partly drawn) [Compound 69], the “pIC50 NK1” value at NK1 came to 7.8. Also, the “pIC50 NK3” value against NK3 turned out to be 6.2. Also, the “pIC50 NK2” value on NK2 is listed as 5.6.

With `O=C(c1cccc(O)c1)N1CCCC(N2CCN([C@H]3CCN(C(=O)c4cc(C(F)(F)F)cc(C(F)(F)F)c4)[C@H](Cc4ccccc4)C3)CC2)C1` (stereo partly drawn) [Compound 70], the IC50 at NK1 is 7.94 nM; at NK3, 1260 nM; on NK2 it was 3980 nM.

Take `COc1ccc(S(=O)(=O)N2CCCC(N3CCN([C@H]4CCN(C(=O)c5cc(C(F)(F)F)cc(C(F)(F)F)c5)[C@H](Cc5ccccc5)C4)CC3)C2)cc1` (stereo partly drawn) [Compound 72]: the values for the IC50 at NK1, on NK3 and at NK2 were 20 nM, 1260 nM and 2000 nM, respectively.

Turning to `O=C(c1cc(C(F)(F)F)cc(C(F)(F)F)c1)N1CC[C@H](N2CCN(C3CCCN(S(=O)(=O)c4ccc(CO)cc4)C3)CC2)C[C@H]1Cc1ccccc1` (stereo partly drawn) [Compound 73], the results for the IC50 on NK1, on NK3 and at NK2 were 7.94 nM, 251 nM and 794 nM, respectively.

For `O=C(Nc1ccc(Cl)cc1)N1CCCC(N2CCN([C@H]3CCN(C(=O)c4cc(C(F)(F)F)cc(C(F)(F)F)c4)[C@H](Cc4ccccc4)C3)CC2)C1` (stereo partly drawn) [Compound 74], the “pIC50 NK1” value against NK1 is 8.0. Further, the “pIC50 NK3” value against NK3 amounted to 5.5. Further, the “pIC50 NK2” value on NK2 is given as 5.4.

Consider `O=C(c1cc(C(F)(F)F)cc(C(F)(F)F)c1)N1CC[C@H](N2CCN(C3CCCN(C(CO)c4ccsc4)C3)CC2)C[C@H]1Cc1ccccc1` (stereo partly drawn) [Compound 76], for which the IC50 on NK1 is 20 nM; on NK3 it was 1580 nM; at NK2 it was 2000 nM.

Take `O=C(c1cc(C(F)(F)F)cc(C(F)(F)F)c1)N1CCC(N2CCN(C3CCCN(C(CO)c4cccs4)C3)CC2)CC1Cc1ccccc1` (stereo not drawn) [Compound 77]: the IC50 at NK1 is 12.6 nM; at NK3 it was 3160 nM; on NK2, 2000 nM.

With `O=C(c1cc(C(F)(F)F)cc(C(F)(F)F)c1)N1CCC(N2CCN(C3CCCN(S(=O)(=O)c4ccc(O)cc4)C3)CC2)CC1Cc1ccccc1` (stereo not drawn) [Compound 78], the IC50 on NK1 was 3.98 nM; on NK3, 316 nM; on NK2 it was 794 nM.

Turning to `O=C(c1cc(C(F)(F)F)cc(C(F)(F)F)c1)N1CC[C@H](N2CCN(C3CCCN(C(CO)c4ccoc4)C3)CC2)C[C@H]1Cc1ccccc1` (stereo partly drawn) [Compound 79], the IC50 on NK1 was 12.6 nM; on NK3 it was 1000 nM; on NK2, 1580 nM.

As for `O=C(c1cc(C(F)(F)F)cc(C(F)(F)F)c1)N1CC[C@H](N2CCN(C3CCCN(S(=O)(=O)c4cccc(O)c4)C3)CC2)C[C@H]1Cc1ccccc1` (stereo partly drawn) [Compound 80], the values for the IC50 at NK1, on NK3 and on NK2 were 10 nM, 501 nM and 794 nM, respectively.

On to `O=C(OCc1ccccc1C(=O)N1CCCC(N2CCN([C@H]3CCN(C(=O)c4cc(C(F)(F)F)cc(C(F)(F)F)c4)[C@H](Cc4ccccc4)C3)CC2)C1)c1ccccc1` (stereo partly drawn) [Compound 82], for which the IC50 at NK1 was 63.1 nM; on NK3, 7940 nM; at NK2, 3160 nM.

For the compound `O=C(c1cc(C(F)(F)F)cc(C(F)(F)F)c1)N1CC[C@H](N2CCN(C3CCCN(S(=O)(=O)c4ccc(CCOCc5ccccc5)s4)C3)CC2)C[C@H]1Cc1ccccc1` (stereo partly drawn) [Compound 84], the values for the IC50 on NK1, on NK3 and on NK2 were 251 nM, 1260 nM and 501 nM, respectively.

Take `O=C(c1cc(COCc2ccccc2)cs1)N1CCCC(N2CCN([C@H]3CCN(C(=O)c4cc(C(F)(F)F)cc(C(F)(F)F)c4)[C@H](Cc4ccccc4)C3)CC2)C1` (stereo partly drawn) [Compound 85]: the IC50 on NK1 is 79.4 nM; on NK3, 5010 nM; on NK2, 3980 nM.

`O=C(c1cc(C(F)(F)F)cc(C(F)(F)F)c1)N1CC[C@H](N2CCN(C3CCCN(S(=O)(=O)c4ccc(CCO)s4)C3)CC2)C[C@H]1Cc1ccccc1` (stereo partly drawn) [Compound 86]: the “pIC50 NK1” value against NK1 worked out at 8.2. Moreover, the “pIC50 NK3” value at NK3 was determined as 6.3. The “pIC50 NK2” value against NK2 was 6.4.

As to `O=C(c1cc(C(F)(F)F)cc(C(F)(F)F)c1)N1CC[C@H](N2CCN(C3CCCN(S(=O)(=O)c4ccc(COCc5ccccc5)s4)C3)CC2)C[C@H]1Cc1ccccc1` (stereo partly drawn) [Compound 87], the IC50 is 316 nM at NK1, 7940 nM at NK3 and 794 nM on NK2.

Regarding `O=C(c1sccc1COCc1ccccc1)N1CCCC(N2CCN([C@H]3CCN(C(=O)c4cc(C(F)(F)F)cc(C(F)(F)F)c4)[C@H](Cc4ccccc4)C3)CC2)C1` (stereo partly drawn) [Compound 88], the results for the IC50 on NK1, on NK3 and on NK2 were 39.8 nM, 631 nM and 2510 nM, respectively.

For `O=C(c1cc(C(F)(F)F)cc(C(F)(F)F)c1)N1CC[C@H](N2CCN(C3CCCN(C(CO)c4ccccc4Cl)C3)CC2)C[C@H]1Cc1ccccc1` (stereo partly drawn) [Compound 89], the IC50 at NK1 is 63.1 nM; on NK3, 7940 nM; on NK2, 5010 nM.

Turning to `CC(C)N/C(=N\C#N)N1CCCC(N2CCN(C3CCN(C(=O)c4cc(C(F)(F)F)cc(C(F)(F)F)c4)C(Cc4ccccc4)C3)CC2)C1` (stereo not drawn) [Compound 91], the IC50 at NK1 was 10 nM; at NK3, 3980 nM; on NK2, 1000 nM.

In the case of `O=C(c1cc(C(F)(F)F)cc(C(F)(F)F)c1)N1CC[C@H](N2CCN(C3CCCN(S(=O)(=O)c4ccc(CO)s4)C3)CC2)C[C@H]1Cc1ccccc1` (stereo partly drawn) [Compound 92], the IC50 on NK1 is 12.6 nM; at NK3 it was 158 nM; on NK2 it was 501 nM.

Take `COc1ccc(NC(=NC#N)N2CCCC(N3CCN([C@H]4CCN(C(=O)c5cc(C(F)(F)F)cc(C(F)(F)F)c5)[C@H](Cc5ccccc5)C4)CC3)C2)cc1` (stereo partly drawn) [Compound 94]: the figures for the IC50 at NK1, on NK3 and on NK2 were 20 nM, 1000 nM and 3980 nM, respectively.

Regarding `COc1ccc(S(=O)(=O)N2CCCC(N3CCN([C@H]4CCN(C(=O)c5cc(C(F)(F)F)cc(C(F)(F)F)c5)[C@H](Cc5ccccc5)C4)CC3)C2)s1` (stereo partly drawn) [Compound 95], the IC50 was 31.6 nM at NK1, 1260 nM on NK3 and 3160 nM on NK2.

As to `O=C(c1cc(C(F)(F)F)cc(C(F)(F)F)c1)N1CCC(N2CCN(C3CCCN(S(=O)(=O)c4cc(CCO)cs4)C3)CC2)CC1Cc1ccccc1` (stereo not drawn) [Compound 96], the IC50 at NK1 is 15.8 nM; at NK3, 100 nM; on NK2 it was 398 nM.
